Experimental data as given in US20100193777A1, “METHOD OF PRODUCING A DESUBSTITUTED COMPOUND, ORGANIC SEMICONDUCTOR FILM AND METHOD OF PRODUCING THE SAME” (FUJIFILM Corporation, priority 2007, published 2010).

Legend:
Assay type in all cases: physicochemical
[1] = Solubility in a solvent (chloroform or water); details: for solubility in water after heating: after heated at 250° C.
Description: In the first embodiment of the present invention, the term “solvent-soluble (being soluble in a solvent)” means to show a solubility of 0.1% by mass or more, more preferably 0.5% by mass or more, and further preferably 1% by mass or more, with respect to a solvent in interest when the solvent to which a compound in interest is added is heated under reflux and then cooled down to room temperature. Further, the term “solvent-insolubilization (to make a compound insoluble in a solvent)” means to reduce the solubility by one digit figure or more than the solvent-soluble state. Specifically, with respect to a solvent, when the solvent is heated under reflux and then cooled down to room temperature, it is preferable to reduce from the solubility of 0.1% by mass or more (solvent-soluble) to the solubility of 0.01% by mass or less, further preferably from the solubility of 0.5% by mass or more (solvent-soluble) to the solubility of 0.05% by mass or less, and especially preferably from the solubility of 1% by mass or more (solvent-soluble) to the solubility of less than 0.1% by mass. Further, the term “solvent-insoluble (being insoluble in a solvent)” means to show solubility of less than 0.1% by mass, preferably 0.05% by mass or less, and further preferably 0.01% by mass or less, with respect to a solvent in interest when the solvent to which a compound in interest is added is heated under reflux and then cooled down to room temperature.
There is no particular restriction in the kind of solvent when degrees of the above-described “solvent-soluble” and “solvent-insoluble” are defined. Accordingly, both “solvent-soluble” and “solvent-insoluble” may be defined in terms of solvent and temperature each of which is actually used. Alternatively, for example, these properties may be specified as solubility (25° C.) with respect to water (distilled water). However, the solvent used in the first embodiment of the present invention is not limited by the above.

[2] = Light resistance test of dye films; details: absorbance at maximum absorption wavelength, 48 h light resistance test
Description: The above-described thin films 1 to 4 were each stored for 24 hours under the conditions of 23° C. and 50% RH. Thereafter, these thin films were each subjected to a light resistance test using a merry-go-round type apparatus for testing of light resistance (Cell Testing Apparatus III, trade name, manufactured by Eagle Engineering Co., Ltd., with a filter WG 320, trade name, manufactured by Schott AG). Absorption spectra of the dye films just before the light resistance test and the dye films after the light resistance test for 48 hours were measured using UV-1600 PC (trade name, manufactured by Shimadzu Corporation). A change of absorbance at the maximum absorption wavelength was read from each absorption spectrum.

[3] = TG/DTA thermal analysis (rate of decrease in mass on heating)
Description: The thermal analysis (TG/DTA measurement) of the thus-produced Exemplified compound (1) was conducted. The TG/DTA measurement was conducted at the rate of temperature increase of 10° C./min in a range of 30° C. to 550° C. under a current of nitrogen gas (flow rate: 200 ml/min) using EXSTAR 6000 (trade name, manufactured by Seiko Instruments Inc.), to determine a rate of decrease in mass. FIG. 1 is a graph showing TG/DTA measurement results of the Exemplified compound (1). Herein, in each of Examples and Comparative Examples described below, the measurement of TG was conducted using the same apparatus and under the same conditions as described above.
In FIG. 1, the uppermost curve indicates the change of mass with respect to temperature (TG.). The bottom curve indicates the heat going in and out with respect to temperature (enthalpy change) (DTA). The middle curve indicates the amount of change of TG (differential value) per time (DTG).

Row | Compound | solubility in a solvent such as chloroform [1] | solubility in water [1] | also measured
1 | metal-free phthalocyanine-tetrasulfonic acid [Exemplified compound (54)] | – | soluble | solubility in water after heating [1]: soluble
2 | CC(C)(C)OC(=O)N1C(=O)C2=C(c3ccccc3)N(C(=O)OC(C)(C)C)C(=O)C2=C1c1ccccc1 [Compound 1 for comparison] | – | – | Residual rate after 48 hours ([2]; dye film after heating): 91%; Residual rate after 48 hours ([2]; dye film before heating): 1.9%
3 | zinc phthalocyanine-tetrasulfonic acid [Exemplified compound (53)] | – | soluble | solubility in water after heating [1]: soluble
4 | copper phthalocyanine-tetrasulfonic acid tetrasodium salt | – | soluble | temperature of desubstitution of the substituent ([3]; from TG and MS of heated residue): higher than 400 °C; reduction in weight in TG on heating ([3]; heated up to 400° C., after initial loss of solvent or water): did not cause any reduction in weight

Continued, in another order:

Row | solubility in a solvent such as chloroform [1] | solubility in water [1] | Compound | also measured
5 | so low that a film was not formed | – | [Cu+2].c1ccc2c(c1)-c1nc-2nc2[n-]c(nc3nc(nc4[n-]c(n1)c1ccccc41)-c1ccccc1-3)c1ccccc21 [cupper phthalocyanine] | –
6 | so low that a film was not formed | so low that a film was not formed | [Zn+2].c1ccc2c(c1)-c1nc-2nc2[n-]c(nc3nc([n-]c4nc(n1)-c1ccccc1-4)-c1ccccc1-3)c1ccccc21 [zinc phthalocyanine] | –
7 | so low that a film was not formed | so low that a film was not formed | c1ccc2c(c1)-c1nc-2nc2[nH]c(nc3nc(nc4[nH]c(n1)c1ccccc41)-c1ccccc1-3)c1ccccc21 [metal-free phthalocyanine] | –
